Values of other authors as cited in US20040186084A1, “Triamcinolone formulations and methods for their preparation and use” (Akorn, Inc., priority 2003, published 2004).

solubility in organic solvents (methanol, acetone and ethyle acetate): sparingly soluble
solubility in water (water): relatively insoluble
Structure (SMILES): CC1(C)O[C@@H]2C[C@H]3[C@@H]4CCC5=CC(=O)C=C[C@]5(C)[C@@]4(F)[C@@H](O)C[C@]3(C)[C@]2(C(=O)CO)O1 [triamcinolone acetonide, (11β,16α)-9-fluoro-11,21-dihydroxy-16,17-[1-methylethylidenebis(oxy)]pregna-1,-4-diene-3,20-dione]
